Measurements from patent publication US20060052451A1, “Method” (priority 2002, published 2006).

Assays:
[1] = molecular target: T1, PPAR delta (Homo sapiens, UniProt Q03181); assay: PPAR delta transactivation assay in COS-1 cells; assay type: cell-based; set-up: Fold activation of PPAR delta: dose or concentration left out as unconfirmed; details: for Fold activation of PPAR delta: mean±SD n=3; for Inhibition of activation of PPAR delta (by a factor of): transactivation assay
T1 construct: 25 ng of vector DNA carrying PPAR alpha, delta or gamma; expressed in transfected cells; host or cells: COS-1 (African green monkey kidney cells)
T1 sequence (Q03181 1-441): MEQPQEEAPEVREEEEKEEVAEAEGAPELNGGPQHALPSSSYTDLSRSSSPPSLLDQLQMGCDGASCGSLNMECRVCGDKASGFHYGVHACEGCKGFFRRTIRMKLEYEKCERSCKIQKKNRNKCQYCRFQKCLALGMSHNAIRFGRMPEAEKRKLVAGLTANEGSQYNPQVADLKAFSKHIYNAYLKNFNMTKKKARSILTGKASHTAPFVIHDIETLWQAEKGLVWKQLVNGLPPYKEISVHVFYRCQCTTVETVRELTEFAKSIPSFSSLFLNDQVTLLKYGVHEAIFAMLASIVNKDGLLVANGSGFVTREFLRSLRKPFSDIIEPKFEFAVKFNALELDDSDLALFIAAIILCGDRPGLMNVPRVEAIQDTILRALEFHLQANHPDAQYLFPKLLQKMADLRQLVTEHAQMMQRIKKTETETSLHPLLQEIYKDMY

[2] = Plasma levels of PFOA after 11 days oral dosing in SD rats (LC/MS/MS); assay type: in vivo, rat; details: 25 mg/kg oral daily for 11 days, 24 hours after final administration
Experimental: The study consisted of one control group of 8 male CD Sprague Dawley rats (8-10-weeks old; obtained from Harlan, UK) and 4 test groups that contained 4 rats. Animals received powdered RM1 diet ad libitum for the duration of the study. […] All chemicals were dissolved in Mazola corn oil (at 2.5 mg/ml) and test compounds were administered at 10 ml/kg bodyweight. Control animal received Mazola corn oil only. All animals were sacrificed after 11 days. Animals were killed by exposure to rising concentrations of CO2, and blood was harvested into lithium/heparin tubes for plasma.
Rat plasma samples were denatured by adding acetonitrile, and the amount of perfluorooctanoic acid (PFOA) present was determined by LC/MS/MS.

[3] = test system: PC3 cells (human prostate cancer-derived); assay: SRB growth inhibition assay, PC3 cells; assay type: cell-based
Experimental: (§1) The effect of perfluorinated compounds on the inhibition of tumour cell growth was assessed iii vitro using three human tumour-derived cell lines. Cancer cell lines were tested using the sulphorhodamine B (SRB) assay (which measures cellular protein and is directly related to cell number), which is utilised by the […] to screen anti-cancer agents.
(§2) HT-29 cells (human colon tumour-derived), MCF7 cells (human breast cancer-derived) and PC3 cells (human prostate cancer-derived) were harvested and diluted (to 5×10^4 cells per ml, 1×10^5 cells per ml and 7.5×10^4 cells per ml respectively) in RPMI 1640 medium containing 5% FBS, 2 mM glutamine and. 50 μg/ml gentamicin. 100 μl of cell suspension per well was added to 96 well plates and allowed to attach overnight. Cells were exposed to test compounds dissolved in DMSO in 100 μl of medium to give final drug concentrations of 0, 0.3, 1, 3, 10, 30, 100, 300, 1000 and 3000 μM (and DMSO at 0.25%). (n=6 for each drug concentration). After 48 hours, cells were fixed in 10% trichloroacetic acid (TCA) at 4° C. for 1-2 hours then washed using water and subsequently air-dried. 100 μl SRB solution (0.4%) in 1% Acetic Acid was added to each well, and plates were incubated at room temperature for 10 minutes. Unbound dye was removed by washing with 1% acetic acid. Plates were air-dried and bound stain was solubilised in 10 mM Tris base and the absorbance read at 520 nm.

[4] = molecular target: T2, human PPAR-alpha ligand binding domain (Homo sapiens, UniProt Q07869); assay: PPAR alpha ligand binding (displacement of DAUDA); details: for Kd: PPAR Receptor Binding Kd Alpha (apparent Kd), DAUDA displacement
T2 sequence (Q07869 179-468): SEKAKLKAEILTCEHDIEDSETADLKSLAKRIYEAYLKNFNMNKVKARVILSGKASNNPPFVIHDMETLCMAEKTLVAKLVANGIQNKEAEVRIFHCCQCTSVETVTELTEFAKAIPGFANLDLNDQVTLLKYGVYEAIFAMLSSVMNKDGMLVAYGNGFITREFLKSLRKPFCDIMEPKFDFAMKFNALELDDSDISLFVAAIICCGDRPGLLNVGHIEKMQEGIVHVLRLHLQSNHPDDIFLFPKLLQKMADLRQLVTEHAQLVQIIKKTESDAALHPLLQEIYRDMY

[5] = test system: MCF7 cells (human breast cancer-derived); assay: SRB growth inhibition assay, MCF7 cells; assay type: cell-based; details: 48 hours exposure
Experimental: as §1, §2

[6] = test system: three human tumour-derived cell lines (HT-29, MCF7, PC3); assay: SRB growth inhibition, summary over the three human tumour cell lines; assay type: cell-based; details: Homo sapiens; over HT-29, MCF7 and PC3
Experimental: as §1, §2

[7] = test system: HT-29 cells (human colon tumour-derived); assay: SRB growth inhibition assay, HT-29 cells; assay type: cell-based; details: 48 hours exposure
Experimental: as §1, §2

[8] = 7-day oral gavage study, metabolic parameters, body weight and food consumption in CR SD rats; assay type: in vivo, rat; details: for Weight loss: 7 days; for Cholesterol (plasma) / Glucose (plasma) / Insulin (plasma) / Triglycerides (plasma): n=5; for Plasma glucose, % of control values: dose not stated
Experimental: Two groups (n=5) of CR SD rats (approximately 300 g) were treated with 2 dose levels of perfluorinated compounds (15 and 25 mg/kg/day body weight). Animals were administered test substances, dissolved in corn oil, by oral gavage, daily for 7 days. One group of 20 CR SD rays was also treated with vehicle (corn oil) alone. Body weight and food consumption were monitored daily.
Twenty-four hours after the last dose the animals were killed by an increasing concentration of carbon dioxide. Blood was collected by cardiac puncture and plasma was prepared and stored at −70° C. until analysed.
Plasma was analysed for triglycerides, cholesterol, and glucose, using kits purchased from Sigma. Concentrations of plasma insulin were determined using a commercially available enzyme-immunoassay-based kit from Amersham Biosciences. All assays were carried out as specified by the manufacturer.

[9] = molecular target: T3, human PPAR-gamma ligand binding domain (Homo sapiens, UniProt P37231); assay: PPAR gamma ligand binding (displacement of cis-parinaric acid)
T3 sequence (P37231 202-505): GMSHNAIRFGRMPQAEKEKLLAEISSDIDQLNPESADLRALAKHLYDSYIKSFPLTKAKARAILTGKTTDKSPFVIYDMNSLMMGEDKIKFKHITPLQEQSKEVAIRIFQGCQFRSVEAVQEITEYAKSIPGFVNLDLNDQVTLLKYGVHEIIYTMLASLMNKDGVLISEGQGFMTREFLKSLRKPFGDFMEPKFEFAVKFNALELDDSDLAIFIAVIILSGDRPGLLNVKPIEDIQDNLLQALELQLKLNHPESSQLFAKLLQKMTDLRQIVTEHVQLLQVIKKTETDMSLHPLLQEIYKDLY

[10] = Homo sapiens, PC-3, 48 hours exposure
[11] = 15 mg/kg/day oral gavage 7 days
[12] = 25 mg/kg/day oral gavage 7 days
[13] = 15 and 25 mg/kg/day, versus control

Structure (SMILES)	Fold activation of PPAR delta [1] [fold]	IC50 [3, 10] [µM]	Kd [4] [µM]	IC50 ([5]; Homo sapiens, MCF7, 48 h) [µM]	IC50 [6] [µM]	IC50 ([7]; Homo sapiens, HT-29, 48 h) [µM]	Plasma insulin, % of control values ([8]; 15 mg/kg) [%]	Weight loss ([8]; 15 mg/kg) [%]	Cholesterol (plasma) [8, 11] [mmol/L]	Glucose (plasma) [8, 11] [mmol/L]	Insulin (plasma) [8, 11] [ng/mL]	Triglycerides (plasma) [8, 11] [mmol/L]	Plasma cholesterol, % of control values ([8]; 25 mg/kg) [%]	Plasma insulin, % of control values ([8]; 25 mg/kg) [%]	Plasma triglycerides, % of control values ([8]; 25 mg/kg) [%]	Glucose (plasma) [8, 12] [mmol/L]	Insulin (plasma) [8, 12] [ng/mL]	Triglycerides (plasma) [8, 12] [mmol/L]	Food consumption [8, 13]	Cholesterol (plasma) [8, 12] [mmol/L]	also measured
CCCCC[C@H](O)/C=C/[C@@H]1[C@H]2C/C(=C/CCCC(=O)O)C[C@H]2C[C@H]1O [carbaprostacyclin, reference compound]	2.17 ± 0.42	–	–	–	–	–	–	–	–	–	–	–	–	–	–	–	–	–	–	–	–
CCOC(=O)C(F)(F)C(F)(F)C(F)(F)C(F)(F)C(F)(F)C(F)(F)C(F)(F)F [EPOA, Ethylperfluorooctanoate]	–	–	–	–	–	–	–	–	–	–	–	–	–	–	–	–	–	–	–	–	Plasma concentration of PFOA (free acid) [2]: equimolar concentrations of PFOA
N.O=C(O)C(F)(F)C(F)(F)C(F)(F)C(F)(F)C(F)(F)C(F)(F)C(F)(F)F [APFO, Ammonium perfluorooctanoate]	–	215	8	211	200 to 600	293	13.5	1	1.00 ± 0.36	13.12 ± 0.74	25.02 ± 20.27	0.25 ± 0.07	56.2	8.3	19.1	11.99 ± 1.87	15.29 ± 9.72	0.34 ± 0.09	dose-related, decreases in food consumption	–	Food consumption ([8]; 15 mg/kg): did not decrease further after day 6; Weight loss ([8]; 25 mg/kg (higher dose)): 11%; Bodyweight change ([8]; 15 and 25 mg/kg/day, continued till end of treatment): lost bodyweight after day 3; Plasma glucose, % of control values [8]: 72.6%
O=C(O)C(F)(F)C(F)(F)C(F)(F)C(F)(F)C(F)(F)C(F)(F)C(=O)O [PFSA, Perfluorosuberic acid (C8)]	0.62 ± 0.31	> 3000	44	> 3000	~3000	> 3000	28.7	–	1.76 ± 0.15	16.41 ± 2.09	52.96 ± 26.55	0.95 ± 0.42	–	–	–	15.9 ± 1.43	109 ± 103.2	1.22 ± 0.56	–	1.92 ± 0.36	Reduction in binding affinity for PPAR alpha compared to PFOA [4]: 7 fold; Inhibition of activation of PPAR delta (by a factor of) [1]: 1.6; Kd [9]: 13 µM; Reduction in binding affinity for PPAR gamma compared to PFOA [9]: ~40 fold
FC(F)(F)C(F)(F)C(F)(F)C(F)(F)C(F)(F)C(F)(F)C(F)(F)C(F)(F)F [PFO, Perfluorooctane]	–	–	–	–	–	–	–	–	1.99 ± 0.46	18.41 ± 1.41	99.58 ± 126.1	1.03 ± 0.35	–	33.5	–	17.13 ± 2.37	61.81 ± 45.81	2.09 ± 2.33	–	1.70 ± 0.11	Plasma glucose raised by ([8]; 25 mg/kg): 3%
O=C(O)C(F)(F)C(F)(F)C(F)(F)C(F)(F)C(F)(F)C(F)(F)C(F)(F)F [PFOA, Perfluorooctanoic acid]	–	–	6	–	–	–	2.98	9.4	1.01 ± 0.086	10.30 ± 1.23	5.51 ± 8.88	0.37 ± 0.04	49.2	30.74	16.8	10.01 ± 3.90	56.76 ± 46.5	0.3 ± 0.13	dose-related, decreases in food consumption	0.98 ± 0.35	IC50 ([3]; 48 hours exposure): 215 µM; IC50 [5]: 244 µM; IC50 [7]: 398 µM; Inhibition of activation of PPAR delta (by a factor of) [1]: 4; Bodyweight lost ([8]; 25 mg/kg, after day 6, terminated early): 11.7%; Plasma glucose, % of control values [8]: 60%
